The subject of one experiment is isolated trachea. The experiment can be described thus: Carbachol-induced tonic contraction of isolated tracheal preparations (beta 2-AR-stimulated function). Set-up: species or system cynomolgus monkey. The conditions noted are these: for effect on carbachol-induced tonic contraction of the isolated trachea: beta 2-AR-stimulated function. The protocol: (§1) The detrusor of the cynomolgus monkey (both sexes) was isolated and dissected. Tracheal, atrial and urethral dissections were also prepared. Then the effect of (−)-2-[4-(2-{[(1S,2R)-2-hydroxy-2-(4-hydroxyphenyl)-1-methylethyl]amino}ethyl)-2,5-dimethylphenoxy] acetic acid on the tone of the detrusor preparation was tested. Carbachol-induced tonic contractions of the tracheal preparations, the heart rate of the atrial preparations and endothelin-1-induced tonic contractions of the urethral preparations were also investigated using the Magnus method.

The next experiment concerns isolated urethra. Briefly: Endothelin-1-induced tonic contraction of isolated urethral preparations. Also noted: species or system cynomolgus monkey. On the procedure: as §1
In another experiment the test system is isolated monkey detrusor. Briefly: Effects on the tone of the isolated monkey detrusor (Magnus method). The note with it: isolated cynomolgus monkey detrusor; for EC50: Primates, read-out: EC50, reduction of the tone of the isolated monkey detrusor. The protocol: as §1
The test system of the next experiment is isolated atria. Briefly: Heart rate of isolated atrial preparations (beta1-AR-stimulated function). Set-up: species or system cynomolgus monkey. The protocol: as §1
Experiment [1] has as its system PGE2-induced bladder hyperactivity. Briefly: Prostaglandin (PG) E2-induced rat overactive bladder model, cystometrogram in conscious rats. The experiment is classed as in vivo. The conditions noted are these: intragastric, 0.1, 1 or 10 mg/kg as free body, 1, 2, 4 hours after administration. The protocol: Rats were anesthetized with pentobarbital sodium. Each cannula was implanted into the urinary bladder and stomach, tunneled subcutaneously and secured on the back of the neck and closed. Seven days after the cannula implantation, cystometrogram of the freely-moved conscious rats were measured. Saline was continuously instilled into the bladder at a rate of 6 mL/hour, and after the cystometric parameters were stabilized, PGE2 (60 μmol/L)-containing saline was instilled continuously instead of the saline into the bladder. After the stable shortening of the micturition interval was confirmed under the condition, ethyl(−)-2-[4-(2-{[(1S,2R)-2-hydroxy-2-(4-hydroxyphenyl) -1-methylethyl]amino}ethyl)-2,5-dimethylphenoxy] acetate hydrochloride (0 (vehicle), 0.1, 1 or 10 mg/kg as doses of the free body) was administered intragastrically. Cystometric parameters were measured for 4 hours after the administration and were expressed as a percentage to those at the pre-administration (0 hour).

For experiment [2], the system named is lower urinary tract partially obstructed overactive bladder. The experiment can be described thus: Lower urinary tract partially obstructed rat overactive bladder model, cystometrogram. The experiment is classed as in vivo. The note with it: intragastric. The protocol:
Rats were anesthetized with pentobarbital sodium. After urethra was ligated with a tube (width: 1 mm) by thread, the tube was removed. Six weeks after the lower urinary tract operation, the implanted thread was removed, and each cannula was implanted into the urinary bladder and stomach, tunneled subcutaneously and secured on the back of the neck and closed. The next day, cystometrogram of freely-moved conscious rats were measured. Saline was instilled into the urinary bladder at a rate of 12 mL/hour. The saline instillation was stopped every micturition. After the stable spontaneous small bladder contraction in filling phase was confirmed, ethyl (−)-2-[4-(2-{[(1S,2R)-2-hydroxy-2-(4-hydroxyphenyl)-1-methylethyl]amino}ethyl)-2,5-dimethylphenoxy] acetate hydrochloride (0 (vehicle), 1 or 10 mg/kg as doses of free body) or tolterodine (10 mg/kg) was administered intragastrically. The micturition parameters at 1 hour after the administration of ethyl (−)-2-[4-(2-{[(1S,2R)-2-hydroxy-2-(4-hydroxyphenyl)-1-methylethyl]amino}ethyl)-2,5-dimethylphenoxy] acetate hydrochloride or tolterodine were measured and were expressed as a percentage to that at the pre-administration (0 hour).

The test system of experiment [3] is spinal cord injury-induced overactive bladder. The experiment can be described thus: Spinal cord injury-induced overactive bladder model, cystometrogram. Type of experiment: in vivo, rat. The note with it: intragastric, 10 mg/kg as free body; 1 hour after administration; FIG. 7. On the procedure: In ether anesthetized rats, spinal transactions were performed at the level of Th9-Th10. Each rat was treated with amikacin 10 mg/body, i.m. for 7 days, and micturition management was done 2 times/day for 2 weeks to prevent over-distension of the bladder. About 6 weeks after the spinal cord operation, rats were anesthetized with pentobarbital sodium and each cannula (PE-50: Nihon Becton Dickinson) was implanted into the urinary bladder and stomach, tunneled subcutaneously, secured on the back of the neck and closed. Seven days after the cannula implantation, cystometrogram was performed. Saline was instilled into the urinary bladder at a rate of 12 mL/hour. The saline instillation was stopped every micturition. After the stable spontaneous small bladder contraction in filling phase was confirmed, ethyl (—)-2-[4-(2-{[(1S,2R)-2-hydroxy-2-(4-hydroxyphenyl)-1-methylethyl]amino}ethyl)-2,5-dimethylphenoxy] acetate hydrochloride (0 (vehicle) or 10 mg/kg as dose of free body) was administered intragastrically. The micturition parameter at 1 hour after the administration of ethyl (−)-2-[4-(2-{[(1S,2R)-2-hydroxy-2-(4-hydroxyphenyl)-1-methylethyl]amino}ethyl)-2,5-dimethylphenoxy] acetate hydrochloride was measured and was expressed as a percentage to that at the pre-administration (0 hour).

The term EC50 denotes the midpoint of the concentration-response curve. With `Cc1cc(OCC(=O)O)c(C)cc1CCN[C@@H](C)[C@H](O)c1ccc(O)cc1` [(−)-2-[4-(2-{[(1S,2R)-2-hydroxy-2-(4-hydroxyphenyl)-1-methylethyl]amino}ethyl)-2,5-dimethylphenoxy] acetic acid], the “effect on carbachol-induced tonic contraction of the isolated trachea” value in the experiment with isolated trachea was “less effect”. Further, in the experiment with isolated trachea (detrusor versus trachea), the “detrusor selectivity compared with the trachea” value is “about 1200 times”. The “effect on endothelin-1-induced tonic contraction of the isolated urethra” value in the experiment on isolated urethra is “no effect”. In addition, in the experiment with isolated monkey detrusor, the EC50 turned out to be 820 nM. In addition, the “effect on heart rate of the isolated atria” value in the experiment on isolated atria (beta1-AR-stimulated function) was “less effect”. Also, the “detrusor selectivity compared with the atria” value in the experiment on isolated atria (detrusor versus atria) is about 80 times.

With `CCOC(=O)COc1cc(C)c(CCN[C@@H](C)[C@H](O)c2ccc(O)cc2)cc1C.Cl` [Compound 1, ethyl (−)-2-[4-(2-{[(1S,2R)-2-hydroxy-2-(4-hydroxyphenyl)-1-methylethyl]amino}ethyl)-2,5-dimethyl-phenoxy] acetate hydrochloride], the micturition interval result in experiment [1] (FIGS. 1 to 3) is given as “prolonged the micturition interval”. The micturition volume result in experiment [1] (FIGS. 4 to 6) is “increased the micturition volume dose-dependently”. Moreover, the “amplitude of spontaneous small bladder contractions in filling phase” value in experiment [2] (1 or 10 mg/kg as free body, 1 hour after administration, FIG. 8) is reported as “decreased the amplitude”. Besides, the “frequency of spontaneous small bladder contractions in filling phase” value in experiment [2] (1 or 10 mg/kg as free body, 1 hour after administration, FIG. 9) is given as “decreased”. Besides, the micturition pressure entry in experiment [2] (1 or 10 mg/kg as free body, 1 hour after administration, FIG. 10) was “did not affect the micturition pressure”. Also, the “potency on spontaneous small bladder contractions relative to tolterodine” value in experiment [2] (tolterodine 10 mg/kg, FIGS. 8 and 9) is on record as “stronger than that of tolterodine”. Also, in experiment [3], the “frequency of spontaneous small bladder contraction in filling phase” value is given as “decreased the frequency”.

For the compound `CC(C)NCC(O)c1ccc(O)c(O)c1` (centres unmarked) [isoproterenol, reference compound], the “effect on carbachol-induced tonic contraction of the isolated trachea” value with isolated trachea is “reduced the carbachol-induced tonic contraction”. In addition, in the experiment with isolated monkey detrusor, the EC50 is 190 nM.

`CCN(CC)CC#CCOC(=O)C(O)(c1ccccc1)C1CCCCC1` (centres unmarked) [oxybutynin]: the “relaxation of the isolated monkey detrusor” value in the experiment with isolated monkey detrusor is given as “No significant relaxation”.

`CCCOC(C(=O)OC1CCN(C)CC1)(c1ccccc1)c1ccccc1` [propiverine]: the “relaxation of the isolated monkey detrusor” value in the experiment with isolated monkey detrusor is recorded as “No significant relaxation”.

Values taken from patent publication US20040229947A1, “Method of treating hyperactive bladder using phenoxyacetic acid derivatives” (KISSEI PHARMACEUTICAL CO., LTD., priority 2003, published 2004).
